Assay results published in patent publication US8178654B2, “Estrogen receptor intramolecular folding systems, estrogen receptor intramolecular folding sensors, methods of use thereof, methods of detecting ER ligands, and methods of detecting ER agonists and antagonists” (Stanford University, priority 2006, dated 2012).

Tests used:
[1] = biological target: T1, hER281-549 (human estrogen receptor alpha ligand binding domain amino acids 281-549) (Homo sapiens, UniProt P03372, G400V); assay: Ligand-induced intramolecular folding split RLUC complementation, N-RLUC-hER281-549-C-RLUC in transfected cells; format: cell-based; settings: for ligand-induced RLUC complementation signal (in words): transfected cells, 1 μM ligand, 18 hours
T1 construct: expressed in transfected cells; host or cells: 293T (transient); also transfected MCF7 and MDA-MB231
T1 sequence (P03372 281-549 G400V): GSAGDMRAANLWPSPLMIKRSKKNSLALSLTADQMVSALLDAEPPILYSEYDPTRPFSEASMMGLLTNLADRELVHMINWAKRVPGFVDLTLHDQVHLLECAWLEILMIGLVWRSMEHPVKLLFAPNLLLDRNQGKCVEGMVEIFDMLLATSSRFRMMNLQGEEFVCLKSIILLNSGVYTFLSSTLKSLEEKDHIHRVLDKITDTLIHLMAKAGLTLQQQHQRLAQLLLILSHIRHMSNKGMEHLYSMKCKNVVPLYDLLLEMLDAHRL
Experimental: (§1) For transfection, 200 ng DNA/well were used in 12 well culture plates. Volumes of Lipofectamine were as recommended by the manufacturer. The co-transfection of 10 ng/well Fluc DNA served as control for normalizing transfection. The cells were assayed after 18 hours of incubation at 37° C. with 5% CO2. The luminometry assay for Renilla Luciferase activity was performed as per protocol published previously. In brief, the cells were lysed in 200 μl of 1× passive lysis buffer (Promega, Madison, Wis.) by shaking for 15 min at room temperature. The cell lysates were centrifuged for 5 min at 10,000 rpm at 4° C. Twenty μl of supernatants were assayed by adding 1 μg of substrate coelenterazine in 100 μl of 0.05M sodium phosphate buffer (pH 7.0) followed by photon counting in the luminometer (Turner Designs, model T 20/20, Sunnyvale, Calif.) for 10 s. The readings were normalized by measuring the protein concentration in the cell lysates and also by measuring the FLUC activity. Activity of RLUC was represented as normalized relative light units (RLU) per microgram of protein.
The cells were assayed for RLUC activity after 18 hours of incubation. The results were normalized as mentioned in the previous experiments.
The results were normalized as mentioned in the previous experiments.
(§2) The ligand agonists and antagonists specific intramolecular folding were studied in ER positive and negative cell lines. […] The cells exposed to solvent DMSO served as control. The same samples were analysed by Western blot for the detection of the transfected protein level using anti-RLUC antibody using the method mentioned above.

[2] = biological target: T2, fusion protein N-RLUC-hER281-549-C-RLUC in 293T cells (Homo sapiens, UniProt P03372, G400V); assay: Western blot of sensor fusion protein level in transfected 293T cells (anti-RLUC antibody); format: cell-based; settings: 1 μM ligand, 18 hours
T2 construct: expressed in transfected cells; host or cells: 293T (transient)
T2 sequence (P03372 281-549 G400V): T1 sequence (P03372 281-549 G400V)
Experimental: as §2

hERG521R = hERG521R (Homo sapiens, UniProt P03372, G400V/G521R); settings: mutant human ER
Experimental: as §1

Chain of hERG521R (P03372 281-595 G400V/G521R): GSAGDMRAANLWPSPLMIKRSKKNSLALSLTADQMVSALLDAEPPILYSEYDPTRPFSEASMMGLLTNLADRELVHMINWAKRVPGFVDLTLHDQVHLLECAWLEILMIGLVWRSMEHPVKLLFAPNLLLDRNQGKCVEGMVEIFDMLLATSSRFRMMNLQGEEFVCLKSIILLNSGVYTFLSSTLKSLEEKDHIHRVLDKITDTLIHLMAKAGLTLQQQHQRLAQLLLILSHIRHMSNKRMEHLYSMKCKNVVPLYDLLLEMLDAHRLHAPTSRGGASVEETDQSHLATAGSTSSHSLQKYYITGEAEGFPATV

Molecule | ligand-induced RLUC complementation signal (in words) [1] | expressed fusion (sensor) protein level [2] | also measured
N.N.[Cl][Pt][Cl] [Cisplatinum] | not significantly different from cells transfected and not exposed to any ligands | significant reduction in the expressed fusion protein levels | –
COc1cccc2c1C(=O)c1c(O)c3c(c(O)c1C2=O)C[C@@](O)(C(=O)CO)C[C@@H]3O[C@H]1C[C@H](N)[C@H](O)[C@H](C)O1 [Doxirubicin] | not significantly different from cells transfected and not exposed to any ligands | – | –
4-hydroxytamoxifen | – | – | RLUC complementation at different time points (in words) [1]: significant (P<0.0015) level of RLUC complementation; complemented Renilla Luciferase activity relative to cells before exposed to ligand [1]: 80±15 times; concentration dependence of RLUC activity (in words) [1]: increased RLUC activity; receptor mediated RLUC complementation (hERG521R): 3-5%
O=C(O[C@@H]1Cc2c(O)cc(O)cc2O[C@@H]1c1cc(O)c(O)c(O)c1)c1cc(O)c(O)c(O)c1 [Epigallocatechin gallate] | not significantly different from cells transfected and not exposed to any ligands | significant reduction in the expressed fusion protein levels | –
C[C@]12CC[C@@H]3c4ccc(O)cc4C[C@@H](CCCCCCCCC[S+]([O-])CCCC(F)(F)C(F)(F)F)[C@H]3[C@@H]1CC[C@@H]2O (stereo partly shown) [ICI182,780] | – | no significant level of degradation | –
